Literature values as cited in patent publication US20030056896A1, “Effective therapy for epilepsies” (priority 1995, published 2003).
Where two headings read alike, the source gives them in different places.

| solubility (in water) | solubility (gastrointestinal pH range of 1 to 8) | Compound |
| --- | --- | --- |
| practically insoluble in water | – | NC(=O)N1c2ccccc2C=Cc2ccccc21 [carbamazepine] |
| – | practically insoluble | O=C1NC(=O)C(c2ccccc2)(c2ccccc2)N1 [phenytoin] |
